The target in assay [1] is Fibroblast growth factor receptor 1 (Homo sapiens, UniProt P11362). As to the kind of experiment: Selectivity interaction (Kinase panel (Z-LYTE Assay)) EUB0001632a FGFR1. Conditions: at 10 µM.
The target in assay [2] is SRSF protein kinase 3 (Homo sapiens) (UniProt Q9UPE1). As to the kind of experiment: Selectivity interaction (KinomeScan (DiscoverX)) EUB0000595a SRPK3. Conditions: at 10 µM.
Assay [3] has as its target T1, Dual specificity mitogen-activated protein kinase kinase 3 (Homo sapiens) (UniProt P46734).
T1 sequence (whole entry): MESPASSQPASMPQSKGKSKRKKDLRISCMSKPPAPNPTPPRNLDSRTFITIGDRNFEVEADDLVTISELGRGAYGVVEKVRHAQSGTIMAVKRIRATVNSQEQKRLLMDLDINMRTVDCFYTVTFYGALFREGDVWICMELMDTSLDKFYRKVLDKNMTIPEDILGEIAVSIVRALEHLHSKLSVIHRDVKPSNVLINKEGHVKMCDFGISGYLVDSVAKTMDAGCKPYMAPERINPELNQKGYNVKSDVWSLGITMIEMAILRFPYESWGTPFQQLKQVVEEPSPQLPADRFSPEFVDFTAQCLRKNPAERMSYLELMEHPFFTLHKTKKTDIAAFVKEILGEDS
Nature of the assay: Selectivity interaction (ActivX KiNativ screen (ex vivo kinase selectivity in human PBMCs)) EUB0001619a MAP2K3. It counts as cell-based. To be noted: PBMC, at 1 µM.

For assay [4], the target named is MAP kinase-interacting serine/threonine-protein kinase 1 (Homo sapiens) (UniProt Q9BUB5). To be noted: at 10 µM.
Assay [5] concerns the target CDK4/Cyclin D3 (Homo sapiens) (UniProt P11802+P30281). As to the kind of experiment: (§1) Selectivity interaction (KinomeScan (DiscoverX)) EUB0000666a CDK4. The format is protein-complex assay. To be noted: at 10 µM.
The target in assay [6] is Cyclin-dependent kinase 4/cyclin D1 (Homo sapiens) (UniProt P11802+P24385). The description is as §1. Conditions: at 10 µM. The format is protein-complex assay.
The target in assay [7] is Mu-type opioid receptor (Homo sapiens, UniProt P35372). Nature of the assay: Selectivity interaction (GPCR panel (PDSP screen)) EUB0000311b OPRM1. To be noted: at 10 µM.
In assay [8] the target is Protein arginine N-methyltransferase 6 (Homo sapiens, UniProt Q96LA8). As to the kind of experiment: Selectivity interaction (Transferase panel (protein, RNA, and DNA methyltransferases. and EP300 (acetyltransferase))) EUB0000270b PRMT6.
Assay [9] concerns the target T2, Mitogen-activated protein kinase kinase kinase 2 (Homo sapiens) (UniProt Q9Y2U5).
T2 sequence (whole entry): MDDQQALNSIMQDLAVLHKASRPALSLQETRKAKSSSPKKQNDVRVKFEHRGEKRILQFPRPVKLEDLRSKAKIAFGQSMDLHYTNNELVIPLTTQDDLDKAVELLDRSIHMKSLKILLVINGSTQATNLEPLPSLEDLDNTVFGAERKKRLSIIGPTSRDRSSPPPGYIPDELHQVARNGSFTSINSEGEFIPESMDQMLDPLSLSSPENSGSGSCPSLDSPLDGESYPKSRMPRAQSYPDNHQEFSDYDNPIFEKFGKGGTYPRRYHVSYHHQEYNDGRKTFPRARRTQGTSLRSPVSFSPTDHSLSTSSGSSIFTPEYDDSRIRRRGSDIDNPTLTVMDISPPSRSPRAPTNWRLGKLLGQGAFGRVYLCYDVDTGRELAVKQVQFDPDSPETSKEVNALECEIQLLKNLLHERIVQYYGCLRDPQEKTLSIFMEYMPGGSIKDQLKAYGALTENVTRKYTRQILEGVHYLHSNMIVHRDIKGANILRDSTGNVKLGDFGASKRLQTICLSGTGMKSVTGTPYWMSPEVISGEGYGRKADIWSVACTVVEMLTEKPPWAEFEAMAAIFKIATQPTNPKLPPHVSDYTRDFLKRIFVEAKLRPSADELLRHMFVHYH
As to the kind of experiment: Selectivity interaction (KinomeScan (DiscoverX)) EUB0000092b MAP3K2. To be noted: at 10 µM.

In assay [10] the target is T3, Phosphatidylinositol 5-phosphate 4-kinase type-2 gamma (Homo sapiens) (UniProt Q8TBX8).
T3 sequence (whole entry): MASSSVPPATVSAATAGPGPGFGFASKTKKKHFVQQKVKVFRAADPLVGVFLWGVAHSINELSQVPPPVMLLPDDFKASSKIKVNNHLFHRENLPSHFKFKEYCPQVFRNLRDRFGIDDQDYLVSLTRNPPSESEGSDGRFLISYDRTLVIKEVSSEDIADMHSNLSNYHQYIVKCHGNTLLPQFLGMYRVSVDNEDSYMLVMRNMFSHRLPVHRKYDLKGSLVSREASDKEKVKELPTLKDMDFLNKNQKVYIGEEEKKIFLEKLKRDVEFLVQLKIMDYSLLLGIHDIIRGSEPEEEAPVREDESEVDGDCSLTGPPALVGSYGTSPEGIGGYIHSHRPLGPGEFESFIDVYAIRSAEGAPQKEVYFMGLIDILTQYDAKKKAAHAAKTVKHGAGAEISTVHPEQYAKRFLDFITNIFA
Nature of the assay: Selectivity interaction (Kinase panel (KiNativ target engagement assay in Jurkat cells)) EUB0001635a PIP4K2C. The format is cell-based. To be noted: Selectivity number of off-targets 0.0, Selectivity number of targets 233.0, Source Knowledge https://www.sciencedirect.com/science/article/pii/S2451945619300674?via%3Dihub, at 1 µM.

This is an account of results in ChEMBL document CHEMBL5465560, “Selectivity Literature for EUbOPEN Chemogenomic Library” (2024).

Chain of Protein arginine N-methyltransferase 6 (Q96LA8 whole entry, looked up): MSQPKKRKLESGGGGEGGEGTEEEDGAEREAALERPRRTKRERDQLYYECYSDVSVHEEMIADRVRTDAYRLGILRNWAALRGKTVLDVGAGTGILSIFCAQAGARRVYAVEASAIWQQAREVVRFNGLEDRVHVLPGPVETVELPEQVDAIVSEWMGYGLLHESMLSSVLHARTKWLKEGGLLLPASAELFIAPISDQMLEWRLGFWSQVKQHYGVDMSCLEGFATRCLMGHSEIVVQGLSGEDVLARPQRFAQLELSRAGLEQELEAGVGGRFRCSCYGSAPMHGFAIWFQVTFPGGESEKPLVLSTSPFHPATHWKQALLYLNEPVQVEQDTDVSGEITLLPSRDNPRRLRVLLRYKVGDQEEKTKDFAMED
Chain of SRSF protein kinase 3 (Homo sapiens) (Q9UPE1 whole entry): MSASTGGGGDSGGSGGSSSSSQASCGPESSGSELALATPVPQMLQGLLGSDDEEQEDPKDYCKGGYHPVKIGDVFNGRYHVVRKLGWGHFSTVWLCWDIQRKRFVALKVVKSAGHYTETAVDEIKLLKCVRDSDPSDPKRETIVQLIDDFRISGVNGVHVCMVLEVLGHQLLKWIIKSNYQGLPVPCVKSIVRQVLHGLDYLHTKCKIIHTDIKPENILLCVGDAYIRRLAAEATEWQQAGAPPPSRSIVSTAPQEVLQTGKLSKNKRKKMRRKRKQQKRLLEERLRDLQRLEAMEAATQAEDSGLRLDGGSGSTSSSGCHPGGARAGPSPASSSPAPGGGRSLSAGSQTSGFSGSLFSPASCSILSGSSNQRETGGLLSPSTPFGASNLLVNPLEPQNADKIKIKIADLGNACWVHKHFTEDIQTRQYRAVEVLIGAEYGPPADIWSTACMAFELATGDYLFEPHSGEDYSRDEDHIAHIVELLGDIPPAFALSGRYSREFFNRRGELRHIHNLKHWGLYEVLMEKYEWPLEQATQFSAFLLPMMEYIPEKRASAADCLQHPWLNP
Chain of MAP kinase-interacting serine/threonine-protein kinase 1 (Homo sapiens) (Q9BUB5 whole entry, looked up): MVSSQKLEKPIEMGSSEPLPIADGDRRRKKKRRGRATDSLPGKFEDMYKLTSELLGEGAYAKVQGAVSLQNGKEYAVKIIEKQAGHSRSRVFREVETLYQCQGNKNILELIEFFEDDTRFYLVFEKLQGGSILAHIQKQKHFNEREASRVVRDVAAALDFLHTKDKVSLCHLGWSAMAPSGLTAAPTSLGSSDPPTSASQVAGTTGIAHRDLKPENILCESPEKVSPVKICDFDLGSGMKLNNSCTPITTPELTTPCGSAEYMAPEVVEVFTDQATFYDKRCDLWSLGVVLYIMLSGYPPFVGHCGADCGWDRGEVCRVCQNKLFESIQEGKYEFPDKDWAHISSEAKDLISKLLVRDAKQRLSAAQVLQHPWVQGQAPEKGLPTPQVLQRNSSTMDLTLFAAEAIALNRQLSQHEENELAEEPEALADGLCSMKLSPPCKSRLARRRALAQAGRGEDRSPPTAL
Chain of Mu-type opioid receptor (P35372 whole entry): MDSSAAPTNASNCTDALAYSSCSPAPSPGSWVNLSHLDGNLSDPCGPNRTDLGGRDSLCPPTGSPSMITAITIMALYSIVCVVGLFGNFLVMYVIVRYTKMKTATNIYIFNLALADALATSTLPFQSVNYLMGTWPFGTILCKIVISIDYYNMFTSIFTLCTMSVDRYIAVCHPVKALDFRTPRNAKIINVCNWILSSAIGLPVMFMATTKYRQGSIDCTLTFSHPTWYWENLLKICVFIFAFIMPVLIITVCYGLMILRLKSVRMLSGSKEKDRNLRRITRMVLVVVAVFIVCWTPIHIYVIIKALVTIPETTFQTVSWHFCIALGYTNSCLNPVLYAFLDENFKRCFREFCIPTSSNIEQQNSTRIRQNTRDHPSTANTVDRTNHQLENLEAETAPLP
Chain of Fibroblast growth factor receptor 1 (P11362 22-822 limits assumed): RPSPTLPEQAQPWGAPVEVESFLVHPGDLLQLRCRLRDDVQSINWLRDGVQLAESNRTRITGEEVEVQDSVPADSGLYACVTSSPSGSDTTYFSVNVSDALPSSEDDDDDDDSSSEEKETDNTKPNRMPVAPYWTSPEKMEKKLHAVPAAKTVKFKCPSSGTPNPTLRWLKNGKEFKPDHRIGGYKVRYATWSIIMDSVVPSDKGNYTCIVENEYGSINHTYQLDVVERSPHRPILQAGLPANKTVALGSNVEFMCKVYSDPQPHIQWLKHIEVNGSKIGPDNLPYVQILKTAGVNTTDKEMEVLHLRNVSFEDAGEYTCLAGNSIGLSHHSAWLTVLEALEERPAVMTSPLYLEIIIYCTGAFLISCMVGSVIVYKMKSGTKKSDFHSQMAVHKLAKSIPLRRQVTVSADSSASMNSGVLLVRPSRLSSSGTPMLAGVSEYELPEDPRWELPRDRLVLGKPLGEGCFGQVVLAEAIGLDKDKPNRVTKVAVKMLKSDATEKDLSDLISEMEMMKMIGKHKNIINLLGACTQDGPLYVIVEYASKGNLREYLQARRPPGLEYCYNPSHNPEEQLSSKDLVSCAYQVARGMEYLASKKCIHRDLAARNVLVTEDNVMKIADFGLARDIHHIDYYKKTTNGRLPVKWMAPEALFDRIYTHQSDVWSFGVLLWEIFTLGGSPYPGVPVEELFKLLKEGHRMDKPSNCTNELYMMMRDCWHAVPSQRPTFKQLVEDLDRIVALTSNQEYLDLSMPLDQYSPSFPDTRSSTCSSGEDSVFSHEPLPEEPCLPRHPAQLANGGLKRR

Turning to `Cn1cc(-n2cnc3c(NCc4nc5cc(Cl)c(Cl)cc5[nH]4)nc(N4CCOCC4)nc32)cn1`, the % of control in assay [1] turned out to be 30.2%.

In turn, `COCC(=O)NC/C=C/c1ccc2ncnc(Nc3ccc(Oc4ccc(C)nc4)c(C)c3)c2c1` [CP-724714] came in with a % of control in assay [2] of 100%. In the case of `N#Cc1cccc(-c2c[nH]c3ncnc(N4CCOCC4)c23)c1`, the % of inhibition in assay [3] was -5%. In assay [4], `CCN(CC)CCCCNc1ncc2cc(-c3cc(OC)cc(OC)c3)c(NC(=O)NC(C)(C)C)nc2n1` showed a % of control of 100%. In the case of `O=C(NOC[C@H](O)CO)c1ccc(F)c(F)c1Nc1ccc(I)cc1F`, the results for the % of control in assay [5] and in assay [6] were 84% and 93%, respectively. For `CCc1ccccc1C(=O)Nc1n[nH]c2c(C)c(F)c(C3C(C#N)=C(C)N(C)C(C)=C3C#N)cc12` [BAY-3827], in [7], the % of inhibition turned out to be 30.5%. For `Cc1cc(CN)cc(C)c1-c1ncn(C)c1-c1cncn1C`, the results for the % activity in assay [8] (at 1 µM) and in [8] (at 10 µM) were more than 90% and more than 80%, respectively.

On to `CCC(=O)N1CCN(c2ccc(-n3c(=O)ccc4cnc5ccc(-c6cnc7ccccc7c6)cc5c43)cc2C(F)(F)F)CC1`, for which the % of control in [9] worked out at 62%. As for `C=CC(=O)Nc1ccc(C(=O)Nc2[nH]nc3c2CN(C(=O)N[C@H](CN(C)C)c2ccccc2)C3(C)C)cc1`, the % of engagement in assay [10] is -6.5%.
